Measurements reported in patent US20240294881A1, “CELL CULTURE SUPPLEMENT FOR PRODUCING STEM CELLS, AND METHOD FOR PRODUCING STEM CELLS” (OPTICELL, INC, priority 2021, published 2024).

Key:
Type in all cases: cell-based
[1] = test system: Hela cells (human cervical epithelial cancer); experiment: Study on plate shape: spheroid formation; settings: 96-well plate coated with 0.125% solution, 2 days of culture
Protocol: (§1) 200 μl of an aqueous solution of the polypeptide represented by formula (1) (0.125%) (cell culture supplement) was added to each well of a commercial 96-well flat-bottom plate (Thermo Fisher Scientific), a V-bottom plate (Thermo Fisher Scientific), and a U-bottom plate (Thermo Fisher Scientific) and allowed to stand at 4° C. for 16 hours.
(§2) Thereafter, the excess cell culture supplement was removed, and the remaining solution was dried under reduced pressure at room temperature for 24 hours.
(§3) Hela cells (human cervical epithelial cancer, JCRB9004, National Institutes of Biomedical Innovation, Health and Nutrition) and HOS-143B (human osteosarcoma) were seeded at 2,000 cells/well in a culture plate coated with the cell culture supplement and cultured at 37° C. under 5% CO2 conditions. The medium used was DMEM+10% FBS.

[2] = test system: HOS-143B (human osteosarcoma); experiment: Study on plate shape: spheroid formation; settings: 96-well plate coated with 0.125% solution, 2 days of culture
Protocol: as §1, §2, §3

[3] = test system: healthy human neonatal fibroblasts; experiment: Anti-NANOG immunostaining of cells dissociated from neonatal fibroblast spheroids; settings: spheroids day 20 dissociated with Accutase, 24 h further culture; nuclei of some cells, majority NANOG-negative
Protocol: To detect stem cells induced in fibroblast spheroids, immunostaining with a fluorescent dye-labeled antibody was used, and stem cells in the spheroid-forming cells were detected. An aqueous solution of the polypeptide represented by formula (1) (0.125%) (cell culture supplement) was added to a commercial polystyrene-made 96-well round-bottom culture vessel (Nunclon Delta 96U Bottom, Thermo Fisher Scientific) at 100 μL/well to complete coating treatment with the cell culture supplement in the same manner as in Example 2. Fibroblasts were maintained and cultured in a serum-free medium (Fujifilm Wako Pure Chemical Corporation, DMEM/F12 medium, human serum albumin recombinant 0.5 mg/mL, human transferrin recombinant 10 μg/mL, basic-FGF 5 ng/ml, and insulin 2.5 μg/mL). Fibroblasts floating in the medium were seeded in the culture vessel coated with the cell culture supplement at 2×10^4 cells/well/100 μL and cultured at 37° C. under 5% CO2 conditions. On day 20 after the start of culture, spheroids were aseptically collected from the 96-well round-bottom culture vessel. […] For the fluorescence-labeled antibody, NL493 fluorescent dye-labeled anti-NANOG antibody (fluorescent green, R&D systems) was used, and observation was performed with a fluorescence microscope.

[4] = test system: healthy human neonatal fibroblasts; experiment: Spheroid culture of healthy human neonatal fibroblasts in coated 96-well round-bottom vessel, microscope observation; settings: PS 96-well round-bottom vessel coated with 0.125% solution; 4×10^4 cells/well
Protocol: (§4) To observe the spheroid formation and stem cell induction in healthy human neonatal fibroblasts over time, culture was performed by using a 96-well round-bottom culture vessel. An aqueous solution of the polypeptide represented by formula (1) (0.125%) (cell culture supplement) was added to a commercial polystyrene-made 96-well round-bottom culture vessel (Nunclon Delta 96U Bottom, Thermo Fisher Scientific) at 100 μL/well and allowed to stand at 4° C. for 24 hours. Thereafter, the excess cell culture supplement was removed, and the remaining solution was dried in a dryer at 37° C. for 96 hours to complete coating treatment with the cell culture supplement. Fibroblasts were maintained and cultured in a serum-free medium (Promo Cell; fibroblast basal medium, basic-FGF 5 ng/ml and insulin 2.5 μg/mL). The fibroblasts floating in the medium were seeded in the culture vessel coated with the cell culture supplement at 4×10^4 cells/well/100 μL and cultured at 37° C. under 5% CO2 conditions.

[5] = test system: healthy human neonatal fibroblasts; experiment: Immunostaining of stem cell marker proteins in neonatal fibroblast spheroids
Protocol: To confirm whether stem cells were induced in fibroblast spheroids, the expression of stem cell marker proteins was examined by immunostaining with fluorescent dye-labeled antibodies. An aqueous solution of the polypeptide represented by formula (1) (0.125%) (cell culture supplement) was added to a commercial polystyrene-made 96-well round-bottom culture vessel (Nunclon Delta 96U Bottom, Thermo Fisher Scientific) at 100 μL/well, and the coating treatment with the cell culture supplement was completed in the same manner as in Example 2. Fibroblasts were maintained and cultured in a serum-free medium (Fujifilm Wako Pure Chemical Corporation; DMEM/F12 medium, human serum albumin recombinant 0.5 mg/ml, human transferrin recombinant 10 μg/mL, basic-FGF 5 ng/ml, and insulin 2.5 μg/mL). Fibroblasts floating in the medium were seeded in the culture vessel coated with the cell culture supplement at 4×10^4 cells/well/100 μL and cultured at 37° C. under 5% CO2 conditions. Spheroids were collected from the 96-well round-bottom culture vessel on day 20 from the start of culture, and cell fixation was performed with a 4% paraformaldehyde solution, followed by immunostaining. For fluorescence-labeled antibodies, three antibodies for detection of human stem cell marker proteins (NL557 fluorescent dye-labeled anti-SOX2 antibody (fluorescent orange), NL493 fluorescent dye-labeled anti-NANOG antibody (fluorescent green), and NL637-labeled anti-OCT4 antibody (fluorescent red), R&D Systems)) were used and reacted simultaneously to perform observation with a fluorescence microscope.

[6] = test system: healthy human neonatal fibroblasts; experiment: Real-time PCR of undifferentiated stem cell and three germ layer marker genes in neonatal fibroblast spheroids (96-well round-bottom); settings: day 20 of 3D spheroid culture, coated 96-well round-bottom; 2D control without supplement day 0 = 1.0; ΔΔCt
Protocol: as §4
To investigate the expression mechanism of the undifferentiated stem cell marker genes found in Example 1 over time, real-time PCR analysis was performed by using the following three transcription factors: SOX2 (sex-determining region Y-box 2), OCT4 (octamer binding transcription factor 4), and NANOG (homeodomain transcription factor), and a TaqMan gene expression assay probe (B-actin) as an endogenous control gene. In the expression analysis, relative quantification was performed according to the ΔΔCt method (Delta Delta Ct method) (FIG. 8).
To determine whether stem cells induced from fibroblasts have a differentiation-inducing ability, analysis was conducted on the expression of genes associated with the three germ layers that indicate the early stages of differentiation. Fibroblasts were cultured in the same type of a 96-well culture vessel treated with the cell culture supplement as above according to the same method. Real-time PCR analysis was performed by using the following expression detection probes for the genes associated with differentiation into the three germ layers: SOX17 (sex-determining region Y-box 17; endoderm), HAND1 (Heart-and neural crest derivatives-expressed protein-1; mesoderm), and MAP2 (microtubule associated protein 2: ectoderm), and a TaqMan gene expression assay probe (ß-actin) as the endogenous control gene. In the expression analysis, relative quantification was performed according to the ΔΔCt method (Delta Delta Ct method) (FIG. 9).

(Pro-Hyp-Gly)n [cell culture supplement]
spheroid formation, U-bottom plate [1]: several spheroids
spheroid formation, V-bottom plate [1]: a single spheroid
spheroid formation, flat-bottom plate [1]: Numerous small spheroids
spheroid formation, U-bottom plate [2]: several spheroids
spheroid formation, V-bottom plate [2]: a single spheroid
spheroid formation, flat-bottom plate [2]: Numerous small spheroids
nuclear NANOG protein in cells dispersed from spheroids [3]: strong NANOG antibody-positive green fluorescence
spheroid formation [4]: formed a single spheroid
NANOG stem cell marker protein, fluorescence (green) ([5]; spheroids day 20, NL493-labeled anti-NANOG antibody): detected
SOX2 stem cell marker protein, fluorescence (orange) ([5]; spheroids day 20, NL557-labeled anti-SOX2 antibody): detected
OCT4 stem cell marker protein, fluorescence (red) ([5]; spheroids day 20, NL637-labeled anti-OCT4 antibody): detected
HAND1 (mesoderm) gene expression level (increase vs control) [6]: 4.6 fold
MAP2 (ectoderm) gene expression level (increase vs control) [6]: 24.2 fold
NANOG gene expression level (increase vs control) [6]: 35.4 fold
OCT4 gene expression level (increase vs control) [6]: 30.1 fold
SOX2 gene expression level (increase vs control) [6]: 144.0 fold
SOX17 (endoderm) gene expression level (increase vs control) [6]: 359.6 fold
